Patent publication US20260325502A1, “COMPOSITION FOR PREVENTING OR TREATING CANCER PAIN” (MARUISHI PHARMACEUTICAL CO., LTD., priority 2023, published 2026)
Entries after “also recorded” stand apart in the source; their conditions may differ.

Experiments:
[1] = Non-Patent Literatures 2 and 8; cited from earlier work
central nervous system = settings: rats; Table 2 in Non-Patent Literature 9; cited from earlier work
[2] = system: cancer pain animal models; settings: pregabalin; Non-Patent Literature 2; cited from earlier work
[3] = system: cancer pain model rats (MRMT-1 rat breast cancer cells, bone metastasis model); experiment: Measurement of pain threshold in bone metastasis cancer pain model rats (Dynamic Plantar Aesthesiometer); assay type: in vivo, Crl:CD (SD); settings: 10 mg/kg and 30 mg/kg, oral
Method: Five-week-old female Crl:CD (SD) SPF rats (Charles River Japan) were injected with MRMT-1 cells (rat breast cancer cells) at 3×10^4 cells/20 μL/body into the medullary cavity at the proximal end of the diaphysis of the right tibia to create a bone metastasis model (day 0). On day 10 after the transplantation of the cancer cells (day 10), the rats were divided into 4 groups of 8 rats each: a control group (with administration of distilled water (trade name: Otsuka Distilled Water) manufactured by Otsuka Pharmaceutical Factory, Inc.), a 10 mg/kg compound A administration group, a 30 mg/kg compound A administration group, and a morphine administration group, as shown in Table 1 below. On day 11 after the transplantation of the cancer cells (day 11), each drug was orally or subcutaneously administered to the rats at a dose of 2 mL/kg. The pain threshold (g) of the plantar surface of the right hind paw was measured using a Dynamic Plantar Aesthesiometer (37450, Ugo Basile) under blinded conditions 1, 3, 6, and 24 hours after the administration. The average value of the pain threshold-time area under the curve (AUC) (g·hr) for 24 hours post-administration was determined for each group.

mice = experiment: Measurement of spontaneous locomotor activity (Supermex); assay type: in vivo, mouse, ICR
Method: Five-to six-week-old male ICR-SPF mice (Japan SLC, Inc.) were divided into 5 groups of 8 mice each: a control group (with administration of distilled water (trade name: Otsuka Distilled Water) manufactured by Otsuka Pharmaceutical Factory, Inc.), two 10 mg/kg compound A administration groups, and two 30 mg/kg compound A administration groups, as shown in Table 2 below. Compound A or distilled water at a dose of 10 mL/kg was orally administered to the mice. One or three hours after the administration of compound A or distilled water, the mice were transferred to a measurement cage, and spontaneous locomotor activity was measured for 30 minutes using Supermex (registered trademark) (Muromachi Kikai Co., Ltd.).

rats = experiment: Measurement of coordinated motor ability (rotarod); assay type: in vivo, rat, SD
Method: Five- to six-week-old male SD-SPF rats (Japan SLC, Inc.) were used in this experiment. The experimental schedule included training using a rotarod (SN445, Shinano Seisakusyo) for 3 days (6 times a day), starting from 3 days before the day of administration. On the day of administration, pre-values (time to stay on the rotarod before the administration of compound A or distilled water) were measured twice, and the rats that spent 180 seconds or more on the rotarod in either of the two measurements were selected. The rats were divided into 3 groups of 6 rats each: a control group (with administration of distilled water (trade name: Otsuka Distilled Water) manufactured by Otsuka Pharmaceutical Factory, Inc.), a 10 mg/kg compound A administration group, and a 30 mg/kg compound A administration group, as shown in Table 3 below. Compound A or distilled water was orally administered to the rats at a dose of 10 mL/kg, and the time to stay on the rotarod was measured 1, 3, 6, and 24 hours after the administration under the test conditions of 10 rotations/min with a cutoff of 180 seconds.

serotonin 3 receptor = settings: Patent Literatures 1 and 2; cited from earlier work
[4] = summary of Experiments 1 and 2, 10 to 30 mg/kg

For `CC(C)C[C@H](CN)CC(=O)O` [Pregabalin], the side effects [1] is listed as “sedative effects such as dizziness, drowsiness, and loss of consciousness”, the “influence on central nervous system relative to analgesic dose” value (central nervous system) is listed as “suppresses the functions of the central nervous system (inhibits coordinated motor ability) at a dose lower than that is required to exert an analgesic effect” and the “effect in cancer pain animal models” value [2] is listed as “effective in cancer pain animal models”.

With `NC1CCN(c2cccc(Cl)n2)CC1` [compound A, 1-(6-chloropyridin-2-yl) piperidin-4-amine] the “cancer pain threshold compared to control group” value ([3]; single dose, right hind paw, measured 1, 3, 6 and 24 h after administration, Dunnett's test, critical value of 1%, n = 8, FIG. 1) was “significant difference was observed; also recorded: significantly increased”, the “pain threshold-time area under the curve (AUC) compared to subcutaneous morphine” value ([3]; versus morphine 3 mg/kg subcutaneous, up to 24 h after administration) was “no statistically significant difference” and the “changes in spontaneous locomotor activity compared to control group” value (mice; 10 mg/kg and 30 mg/kg, oral, 1 or 3 h after administration, measured for 30 min, Dunnett's test, critical value of 5%, n = 8, FIG. 2) was “No statistical difference was observed; also recorded: no significant changes”. The “suppression of spontaneous locomotor activity at a dose that induces an analgesic effect” value (mice; [4]) was “does not suppress spontaneous locomotor activity”, the “changes in coordinated motor ability (time to stay on the rotarod) compared to control group” value (rats; 10 mg/kg and 30 mg/kg, oral, 1, 3, 6 and 24 h after administration, 10 rotations/min, cutoff 180 s, Dunnett's or Steel's test, critical value of 5%, n = 6, FIG. 3) was “No statistically significant difference was observed; also recorded: no significant changes” and the “suppression of coordinated motor ability at a dose that induces an analgesic effect” value (rats; [4]) was “does not suppress spontaneous locomotor activity or coordinated motor ability”. For the same compound, the “activity at serotonin 3 receptor” value (serotonin 3 receptor) was “serotonin 3 receptor agonist”.
